Measured values published in patent US20070196902A1, “Method of detecting AZT resistance in HIV” (University of Pittsburgh, priority 2006, published 2007).
Read-outs that look alike come from different tables or passages of the source.

Columns and labels:
Wild-type HIVLAI = assay: Drug susceptibility assay in P4/R5 cells, recombinant virus; format: cell-based, HIV-1
Experimental: (§1) Drug susceptibility assays. NRTI susceptibility was determined in P4/R5 cells as described previously (Parikh, U. M., et al. 2005. Antimicrob. Agents Chemother. 49:1139-44). Briefly, threefold dilutions of inhibitor were added to P4/R5 cells in triplicate and cells were infected with an amount of virus that produced 100 relative units of light (RLU) in no drug, virus control wells. After 48 hours, the cells were lysed (Gal-Screen; Tropix/Applied Biosystems, Foster City, Calif.) and the RLU was measured using a ThermoLabSystems luminometer (Waltham, Mass.). The IC50 and fold-resistance were calculated as described above. IC50 values from at least three independent experiments were log10 transformed and compared for statistically significant differences using the two-sample Student's t test.
(§2) Construction of mutant recombinant HIV-1. Mutant recombinant plasmid clones of virus were generated by oligonucleotide site-directed mutagenesis as described previously (Shi, C., and J. W. Mellors. 1997. A recombinant retroviral system for rapid […] analysis of human immunodeficiency virus type 1 susceptibility to reverse transcriptase inhibitors. Antimicrob. Agents Chemother. 41:2781-5), using the p6HRT-MO plasmid. p6HRT-MO contains the entire RT and protease coding sequence as previously described (Le Grice, S. F., and F. Gruninger-Leitch. 1990. Rapid purification of homodimer and heterodimer HIV-1 reverse transcriptase by metal chelate affinity chromatography. Eur. J. Biochem. 187:307-14) and four silent restriction sites (Xma I, Mlu I, Xba I, and NgoM IV from the 5′ to 3′ end of RT at codons 14, 358, 490 and 554, respectively). After site-directed mutagenesis (QIAamp kit, QIAGEN, Valencia, Calif.), the mutated RT was ligated into pxxHIV-1LAI MO that contains the entire genome of HIV-1LAI and the same silent restriction sites as p6HRT-MO. Infectious virus was generated by electroporating the mutated xxHIV-1LAI MO plasmid into MT-2 cells as described above. All mutations in recombinant viruses were confirmed by full-length sequencing of the entire RT coding region.

[1] = system: HIVLAI RT D67N/K70R/A371V/Q509L; assay: Drug susceptibility assay in P4/R5 cells, site-directed mutant; format: cell-based, HIV-1; conditions: for Fold-Resistance: D67N/K70R/A371V/Q509L compared to wild-type; for IC50: D67N/K70R/A371V/Q509L, mean ± SD
Experimental: as §1, §2

[2] = system: HIVLAI RT D67N/K70R/T215F/A371V/Q509L; assay: as above; format: cell-based, HIV-1; conditions: for Fold-Resistance: D67N/K70R/T215F/A371V/Q509L compared to wild-type; for cross-resistance compared with viruses without A371V/Q509L: HIV-1 containing D67N/K70R/T215F/A371V/Q509L; for IC50: D67N/K70R/T215F/A371V/Q509L, mean ± SD
Experimental: as §1, §2

[3] = system: HIVLAI RT D67N/K70R/T215F; assay: as above; format: cell-based, HIV-1; conditions: for Fold-Resistance: D67N/K70R/T215F compared to wild-type; for IC50: D67N/K70R/T215F, mean ± SD
Experimental: as §1, §2

HIVLAI RT D67N/K70R = assay: as above; format: cell-based, HIV-1; conditions: for Fold-Resistance: D67N/K70R compared to wild-type; for IC50: D67N/K70R, mean ± SD
Experimental: as §1, §2

[4] = system: HIV-1 RT mutants with A371V and/or Q509L, alone or in combination with TAMs; assay: Drug susceptibility of site-directed mutants, comparisons between mutants with and without A371V/Q509L; format: cell-based; conditions: D67N/K70R/A371V/Q509L and D67N/K70R/T215F/A371V/Q509L
[5] = system: HIV-1 RT mutations D549N and H539N; conditions: cited from earlier work
HIV-1 RT D549N = conditions: D549N mutation; cited from earlier work
HIV-1 RT H539N = conditions: H539N mutation; cited from earlier work
[6] = system: HIV-1 RT D549N with TAMs D67N, K70R, T215Y and K219Q; conditions: D549N present with TAMs D67N; cited from earlier work
[7] = Human immunodeficiency virus 1, P4/R5

| Structure (SMILES) | IC50 (Wild-type HIVLAI; [7]) | Fold-Resistance [1] | IC50 [1, 7] | Fold-Resistance [2] | cross-resistance compared with viruses without A371V/Q509L [2] | IC50 [2, 7] | Fold-Resistance [3] | IC50 [3, 7] | Fold-Resistance (HIVLAI RT D67N/K70R) | IC50 (HIVLAI RT D67N/K70R; [7]) | cross-resistance of viruses with A371V and Q509L in combination with TAMs compared with those with only TAMs [4] | effect of the mutations on susceptibility [5] | increase in resistance (reduced susceptibility) (HIV-1 RT D549N) | increase in resistance (reduced susceptibility) (HIV-1 RT H539N) | increase in resistance [6] | IC50 (Wild-type HIVLAI; Wild-type HIVLAI RT, mean ± SD, at least 3 independent experiments, read-out: IC50) | IC50 [1] | IC50 [2] | IC50 [3] | IC50 (HIVLAI RT D67N/K70R) |
| --- | --- | --- | --- | --- | --- | --- | --- | --- | --- | --- | --- | --- | --- | --- | --- | --- | --- | --- | --- | --- |
| Nc1nc(NC2CC2)c2ncn([C@H]3C=C[C@@H](CO)C3)c2n1 [abacavir] | 6.4 ± 0.5 µM | 2.0 fold | 13 ± 2.5 µM | 3.0 fold | greater cross-resistance | 19 ± 4.5 µM | 2.4 fold | 15 ± 1.5 µM | 1.2 fold | 7.9 ± 0.4 µM | Statistically significant increases in cross-resistance |  |  |  |  |  |  |  |  |  |
| O=c1[nH]cnc2c1ncn2[C@H]1CC[C@@H](CO)O1 [didanosine] | 4.2 ± 0.9 µM | 1.2 fold | 4.9 ± 0.9 µM | 1.6 fold |  | 6.6 ± 0.4 µM | 1.6 fold | 6.8 ± 0.3 µM | 1.2 fold | 5 ± 0.9 µM |  | no effect |  |  |  |  |  |  |  |  |
| O=C1Nc2ccc(Cl)cc2[C@@](C#CC2CC2)(C(F)(F)F)O1 [efavirenz] |  |  |  |  |  |  |  |  |  |  |  | no effect |  |  |  |  |  |  |  |  |
| Nc1ccn([C@@H]2CS[C@H](CO)O2)c(=O)n1 [lamivudine] | 0.5 ± 0.1 µM | 5.2 fold | 2.7 ± 1.4 µM | 15 fold |  | 7.5 ± 1.8 µM | 7.0 fold | 3.8 ± 0.59 µM | 1.9 fold | 1 ± 0.3 µM |  |  |  |  |  |  |  |  |  |  |
| Cc1cn([C@H]2C=C[C@@H](CO)O2)c(=O)[nH]c1=O [stavudine] | 7.2 ± 0.6 µM | 1.3 fold | 9.6 ± 2.9 µM | 2.0 fold |  | 14 ± 4.4 µM | 2.4 fold | 17 ± 4.6 µM | 1.4 fold | 10 ± 3.1 µM |  |  | 2,4 fold | 10 fold | 12.5 fold |  |  |  |  |  |
| C[C@H](Cn1cnc2c(N)ncnc21)OCP(=O)(O)O [tenofovir] |  | 2.2 fold |  | 2.7 fold | greater cross-resistance |  | 1.5 fold |  | 1.5 fold |  | trend toward decreased susceptibility |  |  |  |  | 3.3 ± 0.9 µM | 7.3 ± 1.3 µM | 9 ± 3.5 µM | 4.9 ± 0.7 µM | 4.9 ± 1.5 µM |
